Results: patent US7074778B2, “Asthma associated factors as targets for treating atopic allergies including asthma and related disorders” (Genaera Corporation, priority 1999, dated 2006)
≈ marks a conversion by molar mass, not a printed value. Where two headings read alike, the source gives them in different places. Each block holds one molecule with its values, some of them ahead of it.

What was measured:
[1] = test system: mitogen or antigen stimulated murine or human lymphocytes; test: Lymphocyte aggregation assay (PHA-PMA mitogen stimulated); assay type: cell-based; conditions: Homo sapiens, Lymphocyte, 12 h, aggregates of greater than 100 cells, PHA-PMA stimulation; read-out: Aggregation Assay Minimum Effective Conc.
Procedure: (§1) Immunomodulatory 3-aminosteroids (FIGS. 3–7 and Table I) were identified in vitro based on their ability to inhibit homo- or hetero-typic aggregation and subsequent proliferation of mitogen or antigen stimulated murine or human lymphocytes. Human or mouse lymphocytes were isolated from peripheral blood by Ficoll-Hypaque as described (Stoeckert et al., (1990) Exp. Hematol. 18. 1164–1170). For mitogen stimulation, 1×10^5 cells per well were plated in varying amounts of 3-aminosteroid compounds and assayed for aggregation and proliferation after twelve hours of stimulation by PHA-PMA mitogens. […] For antigen stimulation, lymphocytes were isolated from BALBc mice which had been sensitized to Aspergillus fumigatus antigen for three weeks and plated at 1×10^5 cells per well with or without 100 units of Aspergillus fulmigatus antigen. Cells were grown for three days and then scored for cellular aggregates and proliferation as described above in the presence or absence of increasing amounts of Compound-B or analogue compounds. […] Similar results were obtained in assays using antigen mediated response to compounds (not shown). […] All of the active compounds shown in Table I as well as rational modifications of these compounds as depicted in FIGS. 8–10 are embodiments of the invention

[2] = test system: mitogen or antigen stimulated murine or human lymphocytes; test: PBMC proliferation assay (tritiated thymidine incorporation); assay type: cell-based; conditions: Homo sapiens, Lymphocyte
Procedure: as §1

IL-9 = IL-9 expression in mitogen-stimulated lymphocytes (RT-PCR); assay type: cell-based, human; conditions: FIG. 13
Procedure: Total cellular RNA was extracted after 24 hours from cultured PBMC, murine spleen cells and M07e cells using RNA PCR corekit (Perkin-Elmer, Foster City Calif.) according to manufacturer's instructions. One microgram of RNA from each source was denatured for five minutes at 65° C. and then reverse transcribed into cDNA using a 20 μl reaction mixture containing 50 units of MLV Reverse Transcriptase, one unit per μl RNAse inhibitor. […] oligo d(T)16 primer, 1 mM each dATP, dCTP, dGTP, dTTP, 50 mM KCl, 10 mM Tris-HCl, pH 7.0, 25 mM MgCl2. The reaction mixture was pipetted into thermocycler tubes, placed in a PCR thermal cycler and subjected to one cycle (fifteen minutes at 42° C., five minutes at 99° C. and five minutes at 4° C.). A mock reverse transcription reaction was used as a negative control. […]
Immunomodulatory 3-aminosteroids (FIGS. 3–7 and Table I) were identified in vitro based on their ability to inhibit homo- or hetero-typic aggregation and subsequent proliferation of mitogen or antigen stimulated murine or human lymphocytes. […] Cells were grown for three days and then scored for cellular aggregates and proliferation as described above in the presence or absence of increasing amounts of Compound-B or analogue compounds. […]

[3] = test system: mice sensitized to antigen; test: Airway hyperresponsiveness in mice sensitized to Aspergillus fumigatus antigen (APTI); assay type: in vivo, mouse
Procedure: (§2) DBA2, C57BL6 or B6D2F1 mice, five to six weeks of age, were obtained from the National Cancer Institute or Jackson Laboratories. Animals were housed in high-efficiency particulate filtered air laminar flow hoods in a virus and antigen free facility and allowed free access to pelleted rodent chow and water for three to seven days prior to experimental manipulation. The animal facilities were maintained at 22° C. and the light:dark cycle is automatically controlled (10:14 hour cycle).
(§3) Phenotyping and efficacy of pretreatment. Animals either received no pretreatment or were sensitized by nasal aspiration of Aspergillus fumigatus antigen to assess the effect on bronchial hyperresponsiveness, bronchoalveolar lavage and serum IgE. Mice were challenged with Aspergillus or saline intranasally (Monday, Wednesday and Friday for three weeks) and phenotyped twenty-four hours after the last dose. The effect of pretreatment by aminosteroids was used to assess the effect of down-regulating the IL-9 pathway in mice. To determine the bronchoconstrictor response, respiratory system pressure was measured at the trachea and recorded before and during exposure to the drug. Mice were anesthetized and instrumented as previously described. (Kleeberger et al., (1990) Am. J. Physiol. 258, L313–320; Levitt et al., (1995) Clin. Exp. Allergy 25, 61–63; Ewart et al., (1995) J. Appl. Physiol. 79, 560–566). Airway responsiveness was measured to one or more of the following: 5-hydroxytryptamine, acetylcholine, atracurium or a substance-P analogue. A simple and repeatable measure of the change in peak inspiratory pressure following bronchoconstrictor challenge was used which has been termed the Airway Pressure Time Index (APTI). The APTI was assessed by the change in peak respiratory pressure integrated from the time of injection until the peak pressure returns to baseline or plateau.
(§4) Active compounds identified in vitro were tested in vivo for their ability to suppress airway hyperresponsiveness, lung eosinophilia and serum Ig levels using assays described above. […]

eosinophils = test: Bronchoalveolar lavage cellular analysis (eosinophilia) in sensitized mice; assay type: in vivo, mouse; conditions: FIG. 16
Source text: as §3, with “plateau. […]” for “plateau.”

[4] = test system: total serum IgG1, IgG2a and IgE; test: Serum Ig ELISA in sensitized DBA2J mice; assay type: in vivo, mouse
Procedure: Samples were centrifuged to separate cells and serum was collected and used to measure total IgG1, IgG2a and IgE levels. Samples not measured immediately were frozen at −20° C.
Serum Igs were measured using an ELISA antibody-sandwich assay. Microtiter plates were coated, 50 μl per well, with rat anti-murine IgG1, IgG2a or IgE antibody (Southern Biotechnology and PharMingen) at a concentration of 2.5 μg/ml in coating buffer of sodium carbonate-sodium bicarbonate with sodium azide. Plates were covered with plastic wrap and incubated at 4° C. for sixteen hours. The plates were washed three times with a wash buffer of 0.05% Tween-20 in phosphate-buffered saline, incubating for five minutes for each wash. Blocking of nonspecific binding sites was accomplished by adding 200 μl per well 5% bovine serum albumin in phosphate-buffered saline, covering with plastic wrap and incubating for two hours at 37° C. After washing three times with wash buffer, duplicate 50 μll test samples were added to the wells. Test samples were assayed after being diluted 1:10, 1:50 and 1:100 with 5% bovine serum albumin in wash buffer. In addition to the test samples, a set of Ig standards (PharMingen) at various liner concentrations in 5% bovine serum albumin in wash buffer, were assayed to generate a standard curve. A blank of no sample or standard was used to zero the plate reader (background). After adding samples and standards, the plate was covered with plastic wrap and incubated for two hours at room temperature. After washing three times with wash buffer, 50 μl of secondary antibody rat anti-murine IgG1, IgG2a or IgE-horseradish peroxidase conjugate was added at a concentration of 250 ng/ml in 5% bovine serum albumin in wash buffer. […] After five to ten minutes the reaction was stopped with 50 μl of 12.5% sulfuric acid and absorbance was measured at 490 nm on a Dynatech® MR5000 plate reader. A standard curve was constructed from the standards with antigen concentration on the x axis (log scale) and absorbance on the y axis (linear scale). […]

D2 naive mice = test: Bronchial hyperresponsiveness in D2 naive mice (APTI); assay type: in vivo, mouse; conditions: FIG. 14
Procedure: as §2, §3, §4

[5] = rat, in vivo, 1 mg/kg/day
Procedure: To determine the mechanism by which 3-aminosteroid compounds function to suppress the asthmatic response to allergen, comparative physiologic assays were carried out utilizing the extensively studied Sprague-Dawley rat model (Scaccianoce et al., (1995) Neuroendocrinology 62, 32–38; Hatzinger et al., (1996) Neuroendocrinology 64, 349–356). Animals were administered 1 mg/kg/day of either the corticosteroid Dexamethasone or Compound-B and analyzed at ten hours for corticosterone and ACTH. […] Similar results were found for ACTH levels (>100 fold) supporting the finding that Compound-B is acting by a different mechanism from dexamethasone.

[6] = Solubility during work-up; assay type: physicochemical; conditions: 10% acetonitrile/water, acidified with TFA
Procedure: The reductive aminations were accomplished by similar procedures. The sterol (500 mg for, […] for compounds 7 and 8) was dissolved in 2-propanol (25 mL). Ethylenediamine (1 mL) was added to the flask. The 3-oxo sterol and ethylenediamine were allowed to stir at room temperature for approximately four hours. Sodium cyanoborohydride (250 mg for compound 6 and 100 mg for compounds 7 and 8) was dissolved in 2-propanol (2 mL) and acetic acid (1 mL). The sodium cyanoborohydride solution was added to the reaction flask after evolution of gas had almost ceased (approximately five minutes). In all cases the reaction was complete before the first TLC was taken (less than five minutes). The work-up was the same for all analogues, solution was made basic (pH 10–11) by the addition of carbonate buffer. The aqueous layer was repeatedly extracted with chloroform. The chloroform was removed in vacuo and the crude 3-aminosteroid was dissolved in 10% acetonitrile/water, acidified with TFA. The solubility of compound I was very poor. The solutions were passed through a […] Gelman vacu-cap filter. The 3-aminosteroid isomers were separated by reverse phase chromatography on C18 (Dynamax, 300, 8 μM, 21.6 mm ID, 25 cm/L) using a gradient of acetonitrile in water with 0.1% TFA throughout. […]

[7] = 28 day tolerance study in Sprague-Dawley rats (weight, spleen); assay type: in vivo, rat; conditions: drug administered for 28 days
[8] = FIG. 11 and FIG. 12, mitogen-stimulated lymphocytes, read-out: IC50 for suppression of lymphocyte aggregation and proliferation
[9] = DBA2J mice sensitized to antigen, FIG. 15

Structure (SMILES): COC(=O)CC[C@@H](C)C1CCC2C3C[C@@H](O)[C@H]4C[C@@H](NCCN)CC[C@]4(C)C3CC[C@@]21C (stereo partly shown) [Compound-A]
minimal effective concentration [1]: 1 µg/mL
IC50 [2, 8]: 0.5 µg/mL (≈ 1.11 µM)
expression of IL-9 in mitogen-stimulated lymphocytes (IL-9): block the expression of IL-9
block of airway hyperresponsiveness ([3]; BALBc mice, 2.5 mg/kg administered twice per week, FIG. 19): able to block airway hyperresponsiveness
block of airway hyperresponsiveness [3, 9]: able to block airway hyperresponsiveness
efficacy compared with dexamethasone [3, 9]: more efficacious than the commonly used corticosteroid, dexamethasone
eosinophilia (eosinophils in bronchoalveolar lavage) (eosinophils): eosinophils were the particular cell type affected
serum IgG2a (TH1 associated immunoglobulin) [4]: not
total serum IgG1 ([4]; FIG. 17): suppressed
total serum IgE ([4]; FIG. 18): suppressed

Structure (SMILES): COC(=O)CC[C@@H](C)C1CCC2C3C(CC[C@@]21C)[C@@]1(C)CC[C@H](NCCN)C[C@H]1C[C@H]3O (stereo partly shown) [Compound-B]
minimal effective concentration [1]: 10 µg/mL
IC50 [2, 8]: 2.5 µg/mL (≈ 5.57 µM)
expression of IL-9 in mitogen-stimulated lymphocytes (IL-9): block the expression of IL-9
effective dose compared with Compound-D (D2 naive mice): effective at a lower dose than Compound-D
suppression of bronchial hyperresponsiveness (D2 naive mice; ip): effective in suppressing bronchial hyperresponsiveness
effect on plasma corticosterone [5]: no significant effect

Structure (SMILES): C[C@@H](CNC(=O)N1CCCC1)C1CCC2C3CC[C@@H]4C[C@@H](NCCN)CC[C@]4(C)C3CC[C@@]21C (stereo partly shown) [Compound-I]
IC50 ([2]; tritiated thymidine incorporation, read-out: PBMC Proliferation ASSAY IC50): 0.23 µg/mL (≈ 0.487 µM)
solubility [6]: very poor

suppression of ACTH levels [5]: > 100 fold
suppression of absolute levels of plasma corticosterone [5]: > 450 fold
Structure (SMILES): C[C@@H]1C[C@H]2[C@@H]3CCC4=CC(=O)C=C[C@]4(C)[C@@]3(F)[C@@H](O)C[C@]2(C)[C@@]1(O)C(=O)CO [dexamethasone]
body weight [7]: weight loss
spleen (splenic atrophy) ([7]; FIG. 21): splenic atrophy
